In ChEMBL document CHEMBL6134799, “Auto-RapTAC: A Versatile and Sustainable Platform for the Automated Rapid Synthesis and Evaluation of PROTAC” (J Med Chem, 2025):
Each block holds one compound with its values, some of them ahead of it. Active and inactive are the calls of the source. No cut-off for these calls is given here.

Columns and labels:
Format in all cases: cell-based
[1] = molecular target: T1, von Hippel-Lindau disease tumor suppressor/Cyclin-dependent kinase 12 (Homo sapiens, UniProt P40337+Q9NYV4); test: Auto-RapTAC activity at VHL/CDK12 in human HeLa cells assessed as CDK12 degradation at 500 to 1000 nM incubated for 24 hrs by cytoblot analysis relative to control; conditions: dose 500-1000 nM
Target sequence in this assay (P40337 whole entry, looked up): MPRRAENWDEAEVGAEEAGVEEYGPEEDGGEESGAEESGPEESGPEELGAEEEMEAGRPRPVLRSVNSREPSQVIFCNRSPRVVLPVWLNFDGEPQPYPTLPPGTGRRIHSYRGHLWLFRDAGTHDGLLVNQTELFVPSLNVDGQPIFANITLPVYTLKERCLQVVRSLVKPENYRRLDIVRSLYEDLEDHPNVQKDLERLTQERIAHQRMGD
Target sequence in this assay (Q9NYV4 whole entry, looked up): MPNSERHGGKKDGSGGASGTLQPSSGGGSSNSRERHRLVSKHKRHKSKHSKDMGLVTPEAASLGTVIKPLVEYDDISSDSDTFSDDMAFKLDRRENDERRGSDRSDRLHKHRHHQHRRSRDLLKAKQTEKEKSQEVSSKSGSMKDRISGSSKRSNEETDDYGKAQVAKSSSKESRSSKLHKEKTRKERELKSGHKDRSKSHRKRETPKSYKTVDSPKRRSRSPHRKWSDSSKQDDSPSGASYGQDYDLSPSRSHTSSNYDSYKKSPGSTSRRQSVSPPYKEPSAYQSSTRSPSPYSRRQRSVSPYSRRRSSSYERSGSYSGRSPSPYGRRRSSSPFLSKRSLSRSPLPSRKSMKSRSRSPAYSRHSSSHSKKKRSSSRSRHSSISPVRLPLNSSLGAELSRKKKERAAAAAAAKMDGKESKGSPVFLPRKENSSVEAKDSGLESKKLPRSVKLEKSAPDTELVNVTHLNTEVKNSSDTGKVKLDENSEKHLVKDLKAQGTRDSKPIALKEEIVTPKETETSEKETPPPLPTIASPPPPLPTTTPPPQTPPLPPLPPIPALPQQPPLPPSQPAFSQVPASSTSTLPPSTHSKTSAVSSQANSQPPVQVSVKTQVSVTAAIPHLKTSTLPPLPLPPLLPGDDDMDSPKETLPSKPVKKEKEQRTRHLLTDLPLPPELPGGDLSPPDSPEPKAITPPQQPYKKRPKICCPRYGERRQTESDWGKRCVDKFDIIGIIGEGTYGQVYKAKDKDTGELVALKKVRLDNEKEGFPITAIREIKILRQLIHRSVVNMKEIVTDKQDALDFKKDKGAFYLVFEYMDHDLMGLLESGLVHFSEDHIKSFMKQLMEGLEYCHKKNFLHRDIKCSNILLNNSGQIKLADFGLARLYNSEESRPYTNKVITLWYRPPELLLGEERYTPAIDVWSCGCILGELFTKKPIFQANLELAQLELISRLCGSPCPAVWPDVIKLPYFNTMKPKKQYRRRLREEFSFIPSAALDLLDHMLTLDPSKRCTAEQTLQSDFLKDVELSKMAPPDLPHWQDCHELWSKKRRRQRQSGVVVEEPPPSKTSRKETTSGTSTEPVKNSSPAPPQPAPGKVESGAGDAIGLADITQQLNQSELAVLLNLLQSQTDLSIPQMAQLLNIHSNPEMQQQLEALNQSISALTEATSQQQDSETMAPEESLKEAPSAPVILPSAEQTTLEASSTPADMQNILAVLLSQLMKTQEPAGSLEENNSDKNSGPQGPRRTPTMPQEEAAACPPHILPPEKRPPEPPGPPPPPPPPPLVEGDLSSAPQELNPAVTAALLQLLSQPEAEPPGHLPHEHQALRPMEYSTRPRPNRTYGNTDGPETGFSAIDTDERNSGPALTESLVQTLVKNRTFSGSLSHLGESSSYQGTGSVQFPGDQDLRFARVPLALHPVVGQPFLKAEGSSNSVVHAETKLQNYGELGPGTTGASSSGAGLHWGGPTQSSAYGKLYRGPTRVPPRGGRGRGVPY

HEK293T = test: Auto-RapTAC activity at MDM2/BCL6 in HEK293T cells expressing GFP-BCL6 (unknown origin) assessed as BCL6 degradation at 500 to 1000 nM incubated for 24 hrs by fluorescence based analysis; conditions: Homo sapiens, dose 500-1000 nM
[2] = molecular target: von Hippel-Lindau disease tumor suppressor/B-cell lymphoma 6 protein (Homo sapiens, UniProt P40337+P41182); test: Auto-RapTAC activity at VHL/BCL6 in HEK293T cells expressing GFP-BCL6 (unknown origin) assessed as BCL6 degradation incubated for 24 hrs by fluorescence based analysis
von Hippel-Lindau disease tumor suppressor/B-cell lymphoma 6 protein, sequence (P40337 whole entry, looked up, other chains not shown): as the sequence (P40337 whole entry, looked up) above

[3] = molecular target: T2, Protein cereblon/B-cell lymphoma 6 protein (Homo sapiens, UniProt Q96SW2+P41182); test: Auto-RapTAC activity at CRBN/BCL6 in HEK293T cells expressing GFP-BCL6 (unknown origin) assessed as BCL6 degradation at 500 to 1000 nM incubated for 24 hrs by fluorescence based analysis; conditions: dose 500-1000 nM
T2 sequence (Q96SW2 whole entry, looked up, other chains not shown): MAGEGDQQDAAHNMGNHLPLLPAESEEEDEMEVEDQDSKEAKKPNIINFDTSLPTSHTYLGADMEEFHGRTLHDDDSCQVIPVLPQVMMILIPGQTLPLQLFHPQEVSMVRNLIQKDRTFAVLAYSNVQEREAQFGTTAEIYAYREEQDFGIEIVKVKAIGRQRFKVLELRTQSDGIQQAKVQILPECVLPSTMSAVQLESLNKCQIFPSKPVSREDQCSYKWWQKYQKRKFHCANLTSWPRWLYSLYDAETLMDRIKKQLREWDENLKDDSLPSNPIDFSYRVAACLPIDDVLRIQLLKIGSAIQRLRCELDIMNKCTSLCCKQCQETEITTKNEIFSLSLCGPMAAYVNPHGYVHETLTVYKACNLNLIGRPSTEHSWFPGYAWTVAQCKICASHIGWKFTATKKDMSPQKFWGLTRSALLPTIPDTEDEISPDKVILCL

HeLa [4] = test: Auto-RapTAC activity at MDM2/CDK12 in human HeLa cells assessed as CDK12 degradation at 500 to 1000 nM incubated for 24 hrs by cytoblot analysis relative to control; conditions: dose 500-1000 nM
[5] = molecular target: Protein cereblon/Cyclin-dependent kinase 2 (Homo sapiens, UniProt P24941+Q96SW2); test: Auto-RapTAC activity at CRBN/CDK2 in human NCI-H1299 cells assessed as CDK2 degradation incubated for 24 hrs by Western blot analysis
[6] = molecular target: T1, von Hippel-Lindau disease tumor suppressor/Cyclin-dependent kinase 12; test: Auto-RapTAC activity at VHL/CDK12 in human HeLa cells assessed as CDK12 degradation incubated for 24 hrs by cytoblot analysis
[7] = molecular target: T2, Protein cereblon/B-cell lymphoma 6 protein; test: Auto-RapTAC activity at CRBN/BCL6 in HEK293T cells expressing GFP-BCL6 (unknown origin) assessed as BCL6 degradation incubated for 24 hrs by fluorescence based analysis
[8] = (§1) Auto-RapTAC activity at MDM2/CDK12 in human HeLa cells assessed as CDK12 degradation incubated for 24 hrs by cytoblot analysis
HeLa [9] = test: as §1; conditions: dose 500-1000 nM

- DC50 [2]: 3.1 nM
Structure (SMILES): CNC(=O)COc1cc2cc(Nc3nc(N4CCC(c5cn(CCCCCCCCCCC(=O)N[C@@H](C(=O)N6C[C@H](O)C[C@H]6C(=O)N[C@@H](C)c6ccc(-c7scnc7C)cc6)C(C)(C)C)nn5)CC4)ncc3Cl)ccc2n(C)c1=O
- Activity (HEK293T): Active
- Activity ([2]; dose 500-1000 nM): Dose-dependent-effect; Hook Effect Was Not Observed

- Activity [3]: Active
Structure (SMILES): CNC(=O)COc1cc2cc(Nc3nc(N4CCC(c5cn(CCCCCCCCOc6ccc7c(c6)C(=O)N(C6CCC(=O)NC6=O)C7=O)nn5)CC4)ncc3Cl)ccc2n(C)c1=O (centres undefined)

- Activity [3]: Active
Structure (SMILES): CNC(=O)COc1cc2cc(Nc3nc(N4CCC(c5cn(CCCCCCCCCOc6ccc7c(c6)C(=O)N(C6CCC(=O)NC6=O)C7=O)nn5)CC4)ncc3Cl)ccc2n(C)c1=O (centres undefined)

- DC50 [5]: 454 nM
Structure (SMILES): Cc1ncsc1-c1ccc([C@H](C)NC(=O)[C@@H]2C[C@@H](O)CN2C(=O)[C@H](NC(=O)CCCCCCCCCCn2cc(CCC(=O)N3CCC(NC(=O)c4n[nH]cc4NC(=O)c4c(Cl)cccc4Cl)CC3)nn2)C(C)(C)C)cc1

Second part, the compound before the results:

Structure (SMILES): Cc1ncsc1-c1ccc([C@H](C)NC(=O)[C@@H]2C[C@@H](O)CN2C(=O)[C@H](NC(=O)CCCCCCCCCCn2cc(CCCOc3cc4[nH]c(CNc5nc(N6CCOCC6)nc6c5ncn6C(C)C)nc4cc3F)nn2)C(C)(C)C)cc1
- Activity [1]: > 60%

Structure (SMILES): CNC(=O)COc1cc2cc(Nc3nc(N4CCC(c5cn(CCCCCCCCCCOc6ccc7c(c6)C(=O)N(C6CCC(=O)NC6=O)C7=O)nn5)CC4)ncc3Cl)ccc2n(C)c1=O (centres undefined)
- Activity [3]: Active

Structure (SMILES): CCOC(=O)c1[nH]c2cc(Cl)ccc2c1C(C(=O)NC(C)(C)C)N(Cc1cc(F)c(F)c(F)c1)C(=O)CCCCCn1cc(CCCOc2cc3[nH]c(CNc4nc(N5CCOCC5)nc5c4ncn5C(C)C)nc3cc2F)nn1 (centres undefined)
- Activity (HeLa [4]): > 60%

Structure (SMILES): Cc1ncsc1-c1ccc([C@H](C)NC(=O)[C@@H]2C[C@@H](O)CN2C(=O)[C@H](NC(=O)CCCCCCCCCCn2cc(CCC(=O)N3CCC(NC(=O)c4n[nH]cc4NC(=O)c4c(F)cccc4Cl)CC3)nn2)C(C)(C)C)cc1
- DC50 [5]: 362 nM

Structure (SMILES): Cc1ncsc1-c1ccc([C@H](C)NC(=O)[C@@H]2C[C@@H](O)CN2C(=O)[C@H](NC(=O)COCCCCn2cc(CCCOc3cc4[nH]c(CNc5nc(N6CCOCC6)nc6c5ncn6C(C)C)nc4cc3F)nn2)C(C)(C)C)cc1
- Activity [1]: > 60%
- DC50 [6]: 2.7 nM
- Activity ([6]; dose 500-1000 nM): Dose-dependent-effect; Hook Effect Was Not Observed

Structure (SMILES): CNC(=O)COc1cc2cc(Nc3nc(N4CCC(c5cn(CCCCCCCOc6ccc7c(c6)C(=O)N(C6CCC(=O)NC6=O)C7=O)nn5)CC4)ncc3Cl)ccc2n(C)c1=O (centres undefined)
- Activity [3]: Active
- DC50 [7]: 7 nM
- Activity ([7]; dose 500-1000 nM): Dose-dependent-effect; Hook Effect Was Not Observed

Structure (SMILES): CCOC(=O)c1[nH]c2cc(Cl)ccc2c1C(C(=O)NC(C)(C)C)N(Cc1cc(F)c(F)c(F)c1)C(=O)CCCCCCn1cc(CCCOc2cc3[nH]c(CNc4nc(N5CCOCC5)nc5c4ncn5C(C)C)nc3cc2F)nn1 (centres undefined)
- Activity (HeLa [4]): > 60%
- DC50 [8]: 2.4 nM
- Activity (HeLa [9]): Dose-dependent-effect; Hook Effect Was Not Observed
